According to PubChem BioAssay (NCI):
Where “and” joins values, the source holds several entries; their conditions need not be identical. Equal values may be shown once.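 Tested at 5 concentrations; 48 h exposure; 96-well plates; endpoints linearly interpolated, else capped at highest concentration. The concentration for 50% growth inhibition is given as GI50. TGI marks complete inhibition of growth.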

Experiments:
Experiment in all cases: DTP human tumour cell line panel, 48 h
SF-295 CNS = system: SF-295 CNS
HCT-116 colon = system: HCT-116 colon
LOX IMVI melanoma = system: LOX IMVI melanoma
SNB-75 CNS = system: SNB-75 CNS
EKVX NSCLC = system: EKVX NSCLC
SF-268 CNS = system: SF-268 CNS
U251 CNS = system: U251 CNS
K-562 leukemia = system: K-562 leukemia
MOLT-4 leukemia = system: MOLT-4 leukemia
T-47D breast = system: T-47D breast

Compound	GI50 (SF-295 CNS)	TGI (SF-295 CNS) [µM]	GI50 (HCT-116 colon) [µM]	TGI (HCT-116 colon) [µM]	GI50 (LOX IMVI melanoma)	TGI (LOX IMVI melanoma) [µM]	GI50 (SNB-75 CNS) [µM]	TGI (SNB-75 CNS) [µM]	GI50 (EKVX NSCLC) [µM]	TGI (EKVX NSCLC) [µM]	GI50 (SF-268 CNS) [µM]	TGI (SF-268 CNS) [µM]	GI50 (U251 CNS) [µM]	TGI (U251 CNS) [µM]	TGI (K-562 leukemia) [µM]	TGI (MOLT-4 leukemia) [µM]	GI50 (T-47D breast)	TGI (T-47D breast) [µM]	GI50 (K-562 leukemia)	GI50 (MOLT-4 leukemia)
c1cc[c]([Ge]([O]c2cccc3cccnc23)([c]2ccccc2)[c]2ccccc2)cc1	11.2 µM	23.8	3.41	12.7	3.92 µM	13.2	3.5	13.1	3.42	12.9	3.55	15	3.83	13.4	–	–	–	–	–	–
COc1ccc2cc3c4cc(OC)c(OC)cc4ccn3c2c1	–	> 100	–	–	–	> 100	–	–	–	> 100	–	> 100	–	> 100	> 100	> 100	–	–	–	–
N#CC(Sc1ccccc1)C(N)=O (stereo not given)	–	> 100	–	> 100	–	> 100	–	> 100	–	> 100	–	> 100	–	> 100	> 100	> 100	–	–	–	–
CC(=O)N1c2ccccc2N(C(C)=O)C1c1ccc(C2N(C(C)=O)c3ccccc3N2C(C)=O)[nH]1	–	> 100	–	> 100	–	> 100	–	> 100	–	> 100	–	> 100	–	> 100	> 100	> 100	–	–	–	–
CC(C)(C)c1cc(C[P+](c2ccccc2)(c2ccccc2)c2ccccc2)cc(C(C)(C)C)c1O	0.547 µM	6.79	0.275	10.2	0.457 µM	1.89	0.369	6.18	–	–	0.429	15	0.268	3.76	4.64	5.19	0.2 µM	1.01	0.341 µM	1.41 µM
C[C@]12Cc3conc3C(O)=C1CC[C@@H]1C2CC[C@@]2(C)C1CC[C@@H]2O (stereo not given in full)	–	88.3	–	–	–	24.9	–	31.1	–	64.7	–	73.1	–	64.4	> 100	37.7	–	–	–	–
O=C(COc1ccccc1)NNc1ccccc1	18.3 µM and 11.2 µM	> 300	207	> 300	12.3 µM and 12.2 µM	> 300	60.8	251	–	–	140	> 300	195	> 300	> 300	> 300	35.2 µM and 19 µM	> 300	3.67 µM and 6.43 µM	25.5 µM and 16.3 µM
COc1ccc(C(=O)/C=C/c2cc(-c3ccc(OC)c(OC)c3)n[nH]2)cc1OC	1.6 µM	5.05	–	–	1.29 µM	2.7	1.16	2.96	–	–	2.09	9.82	1.2	2.63	> 100	> 100	1.36 µM	6.65	0.619 µM	2.2 µM
CCN1/C(=C/C(C)=C/c2sc3ccc4ccccc4c3[n+]2CC)Sc2ccc3ccccc3c21	0.121 µM	0.674	0.127	0.293	0.183 µM	0.465	0.205	0.761	–	–	0.198	0.678	0.108	0.336	18.4	2.15	–	–	1.03 µM	0.164 µM
C=CC12CCCCC1CC(C(=O)OC)=C(O)C2 (stereo not given)	–	> 100	–	> 100	–	> 100	–	> 100	–	> 100	–	> 100	–	> 100	> 100	> 100	–	–	–	–
C=CCCn1nc(-c2ccccc2)oc1=O	–	> 100	–	> 100	–	> 100	–	> 100	–	> 100	–	> 100	–	> 100	> 100	> 100	–	–	–	–
CCOc1ccccc1/C=N\N=C(N/N=C/c1ccccc1OCC)N/N=C/c1ccccc1OCC	2.41 µM	> 100	0.763	> 100	1.8 µM	> 100	2.2	> 100	3.04	> 100	1.62	> 100	1.53	> 100	> 100	> 100	–	–	3.76 µM	4.69 µM
COc1ccc(C)c2sc(N(Cc3cccnc3)C(=O)c3ccc(C#N)cc3)nc12	51.8 µM	> 100	29.2	> 100	40.8 µM	> 100	–	–	–	–	58.7	> 100	42.3	> 100	> 100	> 100	26.1 µM	> 100	37.9 µM	33.5 µM
COC(=O)[C@H](Cc1cn(C)cn1)NC(=O)[C@H](CC(C)C)NC(=O)Nc1cc(C(F)(F)F)cc(C(F)(F)F)c1	> 10 µM	> 10	2.14	4.14	4.89 µM	> 10	> 10	> 10	–	–	3.16	> 10	> 10	> 10	> 10	> 10	6.56 µM	> 10	6.41 µM	3.4 µM
COc1ccc(C2(Cl)C(Cl)(C(F)(F)F)C2(Cl)C(F)(F)F)cc1 (stereo not given)	–	29	–	23.9	–	20.5	–	28	–	31.6	–	29	–	28.2	> 100	15	–	–	–	–
O=C1OC2(c3ccc(O)cc3Oc3cc(O)ccc32)c2cccc3cccc1c23	32.3 µM	> 100	22.4	> 100	18.1 µM	36	12.3	43.4	–	–	29.5	> 100	18.1	39.3	> 100	> 100	28.6 µM	99.6	33.2 µM	31.6 µM
Cc1nc2ccccc2c(=O)n1/N=C(\N=Nc1ccccc1)c1ccccc1Cl	–	> 100	–	–	–	> 100	–	82.2	–	> 100	–	> 100	–	> 100	> 100	> 100	–	–	–	–
